*1 amine or outer side, *2 acyl side, *3 side chain or, on linkers, in order; H or OH if unused. Where a SMILES comes first, the peptide text is derived from it. Bridges are numbered along the chain shown (N, C = ends). Roman numbers before positions name the chains, in order. [ ]: non-standard residue; d: D form. Actinocin(1to9) = Cc1c2oc3c(C)ccc(C(=O)[*:2])c3nc-2c(C(=O)[*:1])c(N)c1=O; NMeV = CN[C@H](C(=O)O)C(C)C; Sar = CNCC(=O)O
Key:
[1] = biological target: T1, Muscarinic acetylcholine receptor M4 (Homo sapiens, UniProt P08173); assay type: cell membranes, CHO-K1, Membrane
T1 sequence (P08173 whole entry): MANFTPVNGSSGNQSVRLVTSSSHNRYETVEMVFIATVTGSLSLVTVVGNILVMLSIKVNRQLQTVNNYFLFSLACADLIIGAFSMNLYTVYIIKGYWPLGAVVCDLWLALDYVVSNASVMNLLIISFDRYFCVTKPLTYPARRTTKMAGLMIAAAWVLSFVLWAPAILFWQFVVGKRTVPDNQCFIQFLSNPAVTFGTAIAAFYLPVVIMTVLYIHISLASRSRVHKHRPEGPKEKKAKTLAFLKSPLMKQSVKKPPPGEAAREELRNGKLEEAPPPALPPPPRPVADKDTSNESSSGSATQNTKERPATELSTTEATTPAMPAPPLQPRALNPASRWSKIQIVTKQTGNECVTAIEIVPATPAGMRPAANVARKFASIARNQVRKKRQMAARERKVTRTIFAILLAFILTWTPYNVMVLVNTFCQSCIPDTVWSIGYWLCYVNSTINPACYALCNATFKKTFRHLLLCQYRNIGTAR

Androgen receptor = biological target: T2, Androgen receptor (Rattus norvegicus, UniProt P15207)
T2 sequence (P15207 whole entry): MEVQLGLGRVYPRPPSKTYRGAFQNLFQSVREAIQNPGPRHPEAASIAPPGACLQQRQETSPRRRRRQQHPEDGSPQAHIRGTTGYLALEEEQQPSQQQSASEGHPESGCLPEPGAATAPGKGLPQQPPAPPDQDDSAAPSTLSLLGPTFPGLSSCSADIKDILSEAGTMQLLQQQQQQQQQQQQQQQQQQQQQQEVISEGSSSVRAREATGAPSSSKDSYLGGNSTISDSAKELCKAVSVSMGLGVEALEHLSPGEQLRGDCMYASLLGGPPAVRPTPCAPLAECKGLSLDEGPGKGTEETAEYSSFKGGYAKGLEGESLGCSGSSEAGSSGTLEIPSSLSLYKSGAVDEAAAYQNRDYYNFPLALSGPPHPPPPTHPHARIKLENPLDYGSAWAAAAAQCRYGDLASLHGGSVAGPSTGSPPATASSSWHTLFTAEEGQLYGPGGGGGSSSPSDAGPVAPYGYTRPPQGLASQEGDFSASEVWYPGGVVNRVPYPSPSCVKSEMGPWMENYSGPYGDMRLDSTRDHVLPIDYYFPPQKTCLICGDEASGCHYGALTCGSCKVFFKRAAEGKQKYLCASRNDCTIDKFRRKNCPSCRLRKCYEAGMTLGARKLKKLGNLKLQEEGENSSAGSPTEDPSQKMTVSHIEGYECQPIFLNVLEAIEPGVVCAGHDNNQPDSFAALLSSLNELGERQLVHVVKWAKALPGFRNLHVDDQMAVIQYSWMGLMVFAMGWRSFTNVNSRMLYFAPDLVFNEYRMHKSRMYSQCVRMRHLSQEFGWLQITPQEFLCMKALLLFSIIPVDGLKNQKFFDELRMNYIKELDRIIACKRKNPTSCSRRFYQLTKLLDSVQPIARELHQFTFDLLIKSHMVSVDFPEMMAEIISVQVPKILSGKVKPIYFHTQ
Note: in other assays of this panel Not Active means under 50% inhibition at 10 µM.

Molecule	IC50 ([1]; cho-k1)	also measured
CC(C)CN(C[C@@H](O)[C@H](Cc1ccccc1)NC(=O)O[C@H]1CCOC1)S(=O)(=O)c1ccc(N)cc1	Not Active	IC50 (Androgen receptor): Not Active
c1ccc(Nc2ccc(Nc3ccccc3)cc2)cc1	Not Active	
COc1cc2c3cc1Oc1cc(ccc1O)C[C@@H]1c4c(cc(OC)c(O)c4Oc4ccc(cc4)C[C@@H]3N(C)CC2)CC[N+]1(C)C.[Cl-]	Not Active	
NC(=O)N1c2ccccc2CCc2ccccc21	Not Active	IC50 (Androgen receptor): Not Active
O=C1CC[C@@H](N2C(=O)c3ccccc3C2=O)C(=O)N1	Not Active	
Cc1onc(O)c1CC(N)C(=O)O (racemic) [(R,S)-AMPA]	Not Active	IC50 (Androgen receptor): Not Active
CC[C@@]1(O)C[C@H](O[C@H]2C[C@H](N(C)C)[C@H](O[C@H]3C[C@H](O)[C@H](O[C@H]4CCC(=O)[C@H](C)O4)[C@H](C)O3)[C@H](C)O2)c2c(cc3c(c2O)C(=O)c2c(O)cccc2C3=O)[C@H]1C(=O)OC [ACLARUBICIN]	Not Active	
Nc1nc2c(ncn2COCCO)c(=O)[nH]1 [ACYCLOVIR]	Not Active	
Cc1c(C)c2c(c(C)c1O)CC[C@@](C)(CCC[C@H](C)CCC[C@H](C)CCCC(C)C)O2 [ALPHA-TOCOPHEROL]	Not Active	
CN(C)c1nc(N(C)C)nc(N(C)C)n1 [ALTRETAMINE]	Not Active	
Nc1c(Br)cc(Br)cc1CN[C@H]1CC[C@H](O)CC1 [AMBROXOL]	Not Active	IC50 (Androgen receptor): Not Active
NCCCCCC(=O)O [AMINOCAPROIC ACID]	Not Active	
CCC1(c2ccc(N)cc2)CCC(=O)NC1=O (centres undefined) [AMINOGLUTETHIMIDE]	Not Active	IC50 (Androgen receptor): Not Active
Cc1ccc(/N=C/N(C)/C=N/c2ccc(C)cc2C)c(C)c1 [AMITRAZ]	Not Active	
CCOC(=O)C1=C(COCCN)NC(C)=C(C(=O)OC)C1c1ccccc1Cl (centres undefined) [AMLODIPINE]	Not Active	
COc1ccc(C[C@H]2NC[C@H](O)[C@H]2OC(C)=O)cc1 [ANISOMYCIN]	Not Active	Ki ([1]; cho-k1): Not Active; IC50 (Androgen receptor): Not Active; Ki (Androgen receptor): Not Active
Nc1ncn([C@@H]2O[C@H](CO)[C@@H](O)[C@H]2O)c(=O)n1 [AZACITIDINE]	Not Active	IC50 (Androgen receptor): Not Active
CNCCc1ccccn1 [BETAHISTINE]	Not Active	
CC(C)C(Br)C(=O)NC(N)=O (centres undefined) [BROMISOVALUM]	Not Active	
CCCC1O[C@@H]2C[C@H]3[C@@H]4CCC5=CC(=O)C=C[C@]5(C)[C@H]4[C@@H](O)C[C@]3(C)[C@]2(C(=O)CO)O1 (some centres undefined) [BUDESONIDE]	Not Active	
C[C@H](CS)C(=O)N1CCC[C@H]1C(=O)O [CAPTOPRIL]	Not Active	IC50 (Androgen receptor): Not Active

Molecule	IC50 ([1]; cho-k1)	also measured
O=C(O)CCCc1ccc(N(CCCl)CCCl)cc1 [CHLORAMBUCIL]	Not Active	
C[C@H](CCC(=O)O)[C@H]1CC[C@H]2[C@@H]3[C@H](O)C[C@@H]4C[C@H](O)CC[C@]4(C)[C@H]3C[C@H](O)[C@]12C [CHOLIC ACID]	Not Active	
Cc1cc(C2CCCCC2)n(O)c(=O)c1 [CICLOPIROX]	Not Active	
CC1=C2C(=CO[C@H](C)[C@H]2C)C(O)=C(C(=O)O)C1=O [CITRININ]	Not Active	IC50 (Androgen receptor): Not Active
CC(C)(C)NCC(O)c1cc(Cl)c(N)c(Cl)c1 (centres undefined) [CLENBUTEROL]	Not Active	IC50 (Androgen receptor): Not Active
CC(C)(Oc1ccc(Cl)cc1)C(=O)O [CLOFIBRIC ACID]	Not Active	
Clc1cccc(Cl)c1NC1=NCCN1 [CLONIDINE]	Not Active	
Cc1onc(-c2ccccc2Cl)c1C(=O)N[C@@H]1C(=O)N2[C@@H]1SC(C)(C)[C@@H]2C(=O)O [CLOXACILLIN]	Not Active	
CC1CC(OC(=O)C(O)c2ccccc2)CC(C)(C)C1 (centres undefined) [CYCLANDELATE]	Not Active	
Cc1c2oc3c(C)ccc(C(=O)N[C@@H]4C(=O)N[C@H](C(C)C)C(=O)N5CCC[C@H]5C(=O)N(C)CC(=O)N(C)[C@@H](C(C)C)C(=O)O[C@@H]4C)c3nc-2c(C(=O)N[C@@H]2C(=O)N[C@H](C(C)C)C(=O)N3CCC[C@H]3C(=O)N(C)CC(=O)N(C)[C@@H](C(C)C)C(=O)O[C@@H]2C)c(N)c1=O [DACTINOMYCIN] (I: T[dV]P[Sar][NMeV] / II: T[dV]P[Sar][NMeV]; ester I:1-I:C, II:1-II:C; linker I:N-II:N via Actinocin(1to9))	Not Active	IC50 (Androgen receptor): Not Active
Cc1c(O)c(=O)ccn1C [DEFERIPRONE]	Not Active	
CNCCCN1c2ccccc2CCc2ccccc21 [DESIPRAMINE]	Not Active	IC50 (Androgen receptor): Not Active
O=c1oc2ccccc2c(O)c1Cc1c(O)c2ccccc2oc1=O [DICUMAROL]	Not Active	IC50 (Androgen receptor): Not Active
C[C@H]1O[C@@H](O[C@H]2[C@@H](O)C[C@H](O[C@H]3[C@@H](O)C[C@H](O[C@H]4CC[C@@]5(C)[C@H](CC[C@@H]6[C@@H]5C[C@@H](O)[C@]5(C)[C@@H](C7=CC(=O)OC7)CC[C@]65O)C4)O[C@@H]3C)O[C@@H]2C)C[C@H](O)[C@@H]1O [DIGOXIN]	Not Active	IC50 (Androgen receptor): Not Active
CC(=O)O[C@@]12CO[C@@H]1C[C@H](O)[C@@]1(C)C(=O)[C@H](O)C3=C(C)[C@@H](OC(=O)[C@H](O)[C@@H](NC(=O)OC(C)(C)C)c4ccccc4)C[C@@](O)([C@@H](OC(=O)c4ccccc4)[C@H]21)C3(C)C.O.O.O [DOCETAXEL]	Not Active	
COc1cc2nc(N3CCN(C(=O)C4COc5ccccc5O4)CC3)nc(N)c2cc1OC (centres undefined) [DOXAZOSIN]	Not Active	
C[C@H]1c2cccc(O)c2C(=O)C2=C(O)[C@]3(O)C(=O)C(C(N)=O)=C(O)[C@@H](N(C)C)[C@@H]3[C@@H](O)[C@@H]21.O [DOXYCYCLINE]	Not Active	
O=C(CCCN1CC=C(n2c(=O)[nH]c3ccccc32)CC1)c1ccc(F)cc1 [DROPERIDOL]		IC50 ([1]; read-out: IC50): 3850 nM; Ki ([1]; read-out: Ki): 537 nM
OC(Cn1cncn1)(Cn1cncn1)c1ccc(F)cc1F [FLUCONAZOLE]	Not Active	
CC(C)C(=O)Nc1ccc([N+](=O)[O-])c(C(F)(F)F)c1 [FLUTAMIDE]	Not Active	
N=C(N)NCCN1CCCCCCC1 [GUANETHIDINE]	Not Active	

Molecule	IC50 ([1]; cho-k1)	also measured
CC1(C)O[C@@H]2C[C@H]3[C@@H]4CCC5=CC(=O)CC[C@]5(C)[C@@]4(F)[C@@H](O)C[C@]3(C)[C@]2(C(=O)CCl)O1 [HALCINONIDE]	Not Active	
O=c1[nH]c(=O)n([C@H]2C[C@H](O)[C@@H](CO)O2)cc1I [IDOXURIDINE]	Not Active	
CC1Cc2ccccc2N1NC(=O)c1ccc(Cl)c(S(N)(=O)=O)c1 (centres undefined) [INDAPAMIDE]	Not Active	
Nc1nc(N)nc(-c2cc(Cl)ccc2Cl)n1.O=C(O)/C=C\C(=O)O [IRSOGLADINE MALEATE]	Not Active	
CCC(C)n1ncn(-c2ccc(N3CCN(c4ccc(OCC5COC(Cn6cncn6)(c6ccc(Cl)cc6Cl)O5)cc4)CC3)cc2)c1=O (centres undefined) [ITRACONAZOLE]	Not Active	
Sc1ncnc2nc[nH]c12 [MERCAPTOPURINE ANHYDROUS]	Not Active	
C[C@](N)(Cc1ccc(O)c(O)c1)C(=O)O [METHYLDOPA]	Not Active	
Cc1ccccc1N1C(=O)c2cc(S(N)(=O)=O)c(Cl)cc2NC1C (centres undefined) [METOLAZONE]	Not Active	
COCCc1ccc(OCC(O)CNC(C)C)cc1 (centres undefined) [METOPROLOL]	Not Active	
CCn1cc(C(=O)O)c(=O)c2cc(F)c(N3CCNCC3)cc21 [NORFLOXACIN]	Not Active	
NC1=NC(=O)C(c2ccccc2)O1 (centres undefined) [PEMOLINE]	Not Active	
Nc1nc2c(ncn2CCC(CO)CO)c(=O)[nH]1 [PENCICLOVIR]	Not Active	
C=C(C)C1(O)OC(=O)C=C1OC (centres undefined) [PENICILLIC ACID]	Not Active	IC50 (Androgen receptor): Not Active
CC1(C)S[C@@H]2[C@H](NC(=O)Cc3ccccc3)C(=O)N2[C@H]1C(=O)O [PENICILLIN G]	Not Active	
CCOc1ccc(NC(C)=O)cc1 [PHENACETIN]	Not Active	IC50 (Androgen receptor): Not Active
CNNCc1ccc(C(=O)NC(C)C)cc1 [PROCARBAZINE]	Not Active	
CN(C)CCCN1c2ccccc2Sc2ccccc21 [PROMAZINE]		IC50 ([1]; read-out: IC50): 299 nM; Ki ([1]; read-out: Ki): 42 nM
CC(O)CO (centres undefined) [PROPYLENE GLYCOL]	Not Active	
CADMIUM ACETATE	Not Active	Ki ([1]; cho-k1): Not Active; IC50 (Androgen receptor): Not Active; Ki (Androgen receptor): Not Active
